Data on one compound can be found in patent US20250387422A1, “FORMULATION OF AN AMPHOTERICIN B HYBRID AMIDE DERIVATIVE IN DSGPEG2K MICELLES” (The Board of Trustees of the University of Illinois, priority 2022, published 2025).

SMILES strings stand for the structures. “Also recorded” adds a separate entry of the source. Where only a bound is given, the exact number is not on record here.

Format in all cases: physicochemical
Series [1] can be described thus: In vitro plasma compatibility of AM-2-19 in human plasma. An excerpt:
The in vitro plasma compatibility of AM-2-19 in human plasma is represented below: […]

Series [2] in a line: Solution stability of AM-2-19 in IV-compatible solvents (FIG. 1). To be noted: IV-compatible solvents such as 5% dextrose in water (D5W).
Series [3] is described as follows: Solubility of AM-2-19-FB in D5W/DSG-PEG2000. Conditions: aqueous with cosolvent or surfactant or cyclodextrin.
[4] abbreviates: ratio 1:0.1, final concentration AM-2-19 0.09 mg/mL.
Setting [5] is: ratio 1:0.1, final concentration AM-2-19 0.18 mg/mL.
Setting [6] is: ratio 1:0.1, final concentration AM-2-19 0.45 mg/mL.
[7] abbreviates: ratio 1:1, final concentration AM-2-19 0.50 mg/mL.
[8] abbreviates: ratio 1:1, final concentration AM-2-19 1.00 mg/mL.
Setting [9] is: ratio 1:1, final concentration AM-2-19 2.50 mg/mL.

The solubility is the concentration that dissolves in the medium under given conditions. For the compound `CC1OC(OC2/C=C/C=C/C=C/C=C/C=C/C=C/C=C/[C@H](C)[C@@H](O)[C@@H](C)[C@H](C)OC(=O)C[C@H](O)C[C@H](O)CC[C@@H](O)[C@H](O)C[C@H](O)C[C@]3(O)C[C@H](O)[C@@H](C(=O)NC(CO)CO)C(C2)O3)C(O)C(N)C1O` (stereo partly drawn) [AM-2-19], the Compatibility entry in series [1] (setting [4]) is “compatible”; in series [1] (setting [5]), “compatible”; in series [1] (setting [6]), “Not compatible”; in series [1] (setting [7]), “Not compatible”; in series [1] (setting [8]), “Not compatible”; in series [1] (setting [9]), “Not compatible”. The “Precipitate/Pellet or Coagulation Observed” value in series [1] (setting [4]) is on record as “None”; in series [1] (setting [5]), “None”; in series [1] (setting [6]) it was “Pellet (Very Light)”; in series [1] (setting [7]) it was “Pellet (Light)”; in series [1] (setting [8]) it was “Pellet (Moderate)”; in series [1] (setting [9]), “Pellet (Severe)”. For the same compound, the solution stability entry in series [2] is “unstable even over the course of hours; also recorded: lacks solution stability”. Further, the values for the solubility in series [3] (in D5W/DSG-PEG2000 (1:3 molar ratio) without the acetate buffer) and in series [3] (in D5W/DSG-PEG2000 with acetate buffer) were approximately 100 µg/mL and more than 8000 µg/mL, respectively.
